Assay results: patent US20100227856A1, “NOVEL COMPOUNDS” (SMITHKLINE BEECHAM CORPORATION, priority 2006, published 2010)

Biological target: T1, TRPV4 channel receptors (Bos taurus, UniProt A0A8F4X677)
T1 construct: obtained using this method in bovine articular chondrocytes; endogenous in cells; host or cells: bovine articular chondrocytes
Assay: Ca2+ influx in bovine articular chondrocytes (Fura-2 fluorescence, FlexStation)
Type: cell-based
Text: Ca^2+ influx mediated through TRPV4 channel receptors can be measured using articular chondrocytes from such species as, but not limited to, human, rat, canine, rabbit, monkey, and bovine, using standard techniques in the art such as, but not limited to, Fura-2 (Invitrogen/Molecular Probes, Eugene, Oreg.) fluorescence using a FlexStation (manufactured by Molecular Devices, Sunnyvale, Calif.). Table 1 lists biological data for several representative compounds obtained using this method in bovine articular chondrocytes.

T1 sequence (A0A8F4X677 1-871): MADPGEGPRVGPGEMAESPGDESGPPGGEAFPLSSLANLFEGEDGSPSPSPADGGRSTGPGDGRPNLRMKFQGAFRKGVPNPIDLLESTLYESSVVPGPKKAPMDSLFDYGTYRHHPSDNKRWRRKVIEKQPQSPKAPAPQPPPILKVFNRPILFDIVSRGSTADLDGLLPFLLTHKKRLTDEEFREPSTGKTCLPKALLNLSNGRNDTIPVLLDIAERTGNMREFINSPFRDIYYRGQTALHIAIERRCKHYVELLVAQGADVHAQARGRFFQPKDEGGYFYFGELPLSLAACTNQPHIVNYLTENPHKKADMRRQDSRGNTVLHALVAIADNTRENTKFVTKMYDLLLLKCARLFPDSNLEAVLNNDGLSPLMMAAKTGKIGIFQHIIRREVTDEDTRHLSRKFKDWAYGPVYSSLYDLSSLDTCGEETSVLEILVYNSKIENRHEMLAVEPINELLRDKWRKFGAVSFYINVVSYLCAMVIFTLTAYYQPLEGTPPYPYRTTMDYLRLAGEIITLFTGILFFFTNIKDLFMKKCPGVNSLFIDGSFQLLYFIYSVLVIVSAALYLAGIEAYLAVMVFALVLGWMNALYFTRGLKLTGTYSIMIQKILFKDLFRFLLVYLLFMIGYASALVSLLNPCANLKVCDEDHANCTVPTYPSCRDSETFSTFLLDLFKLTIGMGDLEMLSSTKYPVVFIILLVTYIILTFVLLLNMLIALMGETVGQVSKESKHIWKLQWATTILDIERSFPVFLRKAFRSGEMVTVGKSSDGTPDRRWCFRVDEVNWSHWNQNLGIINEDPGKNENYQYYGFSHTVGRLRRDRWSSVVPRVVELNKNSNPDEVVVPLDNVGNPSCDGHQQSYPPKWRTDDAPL

SMILES | EC50
CC(C)C[C@H](NC(=O)c1cc2ccccc2s1)C(=O)NCC1CCCCN1S(=O)(=O)c1ccccc1C#N (stereo partly drawn) [Example 1, N-((1S)-1-{[({1-[(2-cyanophenyl)sulfonyl]-2-piperidinyl}methyl)amino]carbonyl}-3-methylbutyl)-1-benzothiophene-2-carboxamide] | 110 to 2000 nM
CC(C)C[C@H](NC(=O)c1cc2ccccc2s1)C(=O)NCCC1CCCCN1S(=O)(=O)c1ccc(Cl)cc1Cl (stereo partly drawn) [Example 3, N-((1S)-1-{[(2-{1-[(2,4-Dichlorophenyl)sulfonyl]-2-piperidinyl}ethyl)amino]carbonyl}-3-methylbutyl)-1-benzothiophene-2-carboxamide] | 10 to 100 nM
